From US6417187B2, “1,2,4-triazole based compounds that can be used as insecticides or acaricides and processes” (Dow AgroSciences LLC, priority 2000, dated 2002) come the findings set out here.

Holding throughout (type): in vivo
The test system of test [1] is Sweetpotato Whitefly (Bemisia tabacia). The experiment in a line: Insecticidal test for Sweetpotato Whitefly (cotton plant spray). The conditions noted are these: Bemisia, 312 h; 200 ppm spray on cotton plants, 13 days, reduction of large nymphs; read-out: WF: activity at 200 ppm against whitefly (% Control rating).
Test [2] deals with cotton aphid (Aphis gossvpii). The experiment in a line: Insecticidal test for cotton aphid (squash cotyledon spray). As to conditions: 72 h; 50 ppm spray on infested squash cotyledons, 3 days, population reduction versus untreated; read-out: CA: activity at 50 ppm against cotton aphid (% Control rating).
Test [3] has as its system Green Leafhopper (Nephotettix cincticeps). The experiment in a line: Insecticidal test for Green Leafhopper (rice seedling roots in test solution). As to conditions: 10 ppm test solution, rice seedling roots, 3rd instar nymphs, mortality at 6 days.
Test [4] deals with Brown Planthopper (Nilaparvata lugens). Briefly: Insecticidal test for Brown Planthopper (rice seedling roots in test solution). The conditions noted are these: 10 ppm test solution, rice seedling roots, 3rd instar nymphs, mortality at 6 days.
Test [5] relates to cabbage looper (Trichoplusia ni). The experiment in a line: Insecticidal test for cabbage looper (cabbage leaf-disc dip). As to conditions: Trichoplusia ni, 120 h; 400 ppm, cabbage leaf-dip, 2nd instar larvae, 5 days; read-out: CL: activity at 400 ppm against cabbage looper (% Control rating).
Test [6] has as its system beet armyworm (Spodoptera exigua). The experiment in a line: Insecticidal test for beet armyworm (treated lepidopteran diet). As to conditions: Spodoptera exigua, 120 h; 400 ppm, treated diet, second-instar larvae, 5 days; read-out: BAW: activity at 400 ppm against beet armyworm (% Control rating).
The subject of test [7] is tobacco budworm (Heliothis virescens). The experiment in a line: Insecticidal test for tobacco budworm (cotton cotyledon leaf-disc dip). The conditions noted are these: Heliothis virescens, 120 h; 400 ppm, cotton cotyledon leaf-dip, 2nd instar larvae, 5 days; read-out: TBW: activity at 400 ppm against tobacco budworm (% Control rating).
Test [8] concerns two-spotted spider mite (Tetranychus urticae). Briefly: Insecticidal test for two-spotted spider mite, ovicide method. As to conditions: Tetranychus urticae, in Gossypium hirsutum, foliar, 144 h, read-out: SM: activity at 2.5 ppm against two-spotted spider mite (% Control rating).

Turning to `Cn1nc(-c2c(F)cccc2Cl)nc1-c1sc(C#C[Si](C)(C)C)c(Cl)c1Cl` [Compound 1, 1-Methyl-3-(2-chloro-6-fluorophenyl)-5-(3,4-dichloro-5-(2-trimethylsilyl-ethynyl)-thien-2-yl) [1 2,4]triazole], the pest or weed control at 200 ppm in test [1] was less than 50%. Besides, the pest or weed control at 50 ppm in test [2] was 50 to 59%. Also, in test [3], the “GLH: activity at 10 ppm against green leafbopper (% Control rating)” value is reported as “B (80-89)”. For the same molecule, the “BPH: activity at 10 ppm against brown planthopper (% Control rating)” value in test [4] was “F (less than 50)”. The pest or weed control at 400 ppm in test [5], in test [6] and in test [7] was 90 to 100% each time. Moreover, the pest or weed control at 2.5 ppm in test [8] was 80 to 89%.
